Reference: the NIST ThermoML archive (doi:10.1021/je034102r)

Test: molar heat capacity at constant pressure
Conditions: 101.33 kPa, Liquid, heat bridge-scanning calorimeter

CCCCn1cc[n+](C)c1.F[P-](F)(F)(F)(F)F [1-butyl-3-methylimidazolium hexafluorophosphate]
Conditions	molar heat capacity at constant pressure [J/K/mol]
408.32 K	474.58
408.61 K	473.73
408.74 K	473.45
408.88 K	473.45
409.01 K	473.45
409.14 K	473.73
409.27 K	474.02
409.4 K	474.02
409.53 K	473.73
409.67 K	473.73
409.8 K	474.3
409.93 K	474.58
410.22 K	475.15
410.35 K	474.58
410.48 K	474.3
410.61 K	474.3
410.74 K	474.58
410.88 K	474.3
411.01 K	474.3
411.14 K	474.02
411.27 K	473.73
411.58 K	475.72
411.71 K	475.72
411.84 K	476.01
411.97 K	476.01
412.11 K	475.72
412.24 K	475.15
412.37 K	474.58
412.5 K	474.87
412.63 K	474.58
412.77 K	475.15
412.9 K	475.15
413.18 K	474.58
413.31 K	474.58
413.45 K	474.3
413.58 K	474.3
413.71 K	474.3
413.84 K	474.3
413.97 K	474.02
414.11 K	474.02
414.24 K	474.3
414.53 K	474.58
414.67 K	475.44
414.8 K	476.01
414.93 K	476.29
415.07 K	476.29
415.2 K	476.57
415.33 K	476.01
415.47 K	476.01
415.6 K	475.72
415.73 K	475.44
415.87 K	475.44
416.15 K	475.44
416.29 K	475.44
416.42 K	475.15
416.55 K	474.87
416.69 K	475.15
416.82 K	475.15
416.95 K	475.72
417.08 K	476.01
417.22 K	477.43
417.52 K	476.57
417.65 K	476.86
417.8 K	476.57
417.93 K	476.29
418.06 K	476.29
418.2 K	475.72
418.33 K	475.72
418.46 K	475.72
418.6 K	475.44
418.73 K	476.01
418.86 K	477.14
419.15 K	478.56
419.29 K	477.71
419.42 K	477.14
419.55 K	476.57
419.69 K	476.57
419.82 K	476.29
419.96 K	476.57
420.09 K	476.57
420.22 K	476.29
420.52 K	477.14
420.66 K	476.57
420.79 K	477.14
420.92 K	477.14
421.06 K	477.14
421.19 K	477.43
421.33 K	476.86
421.46 K	476.86
421.59 K	476.86
421.73 K	476.57
421.86 K	476.57
422.15 K	477.14
422.28 K	477.99
422.42 K	478.56
422.55 K	478.28
422.69 K	477.99
422.82 K	477.71
422.95 K	477.71
423.09 K	477.99
423.22 K	478.56
423.52 K	477.71
423.65 K	477.43
423.79 K	477.71
423.92 K	477.71
424.05 K	477.71
424.2 K	477.99
424.34 K	478.28
424.47 K	478.56
424.61 K	478.85
424.74 K	478.28
424.87 K	478.28
425.17 K	478.85
425.3 K	478.85
425.43 K	478.56
425.57 K	478.28
425.7 K	478.85
425.84 K	479.42
425.97 K	480.84
426.11 K	481.4
426.24 K	480.55
426.54 K	479.7
426.67 K	479.42
426.81 K	479.13
426.94 K	479.42
427.08 K	479.42
427.21 K	479.42
427.35 K	479.13
427.48 K	479.13
427.62 K	478.85
427.75 K	479.13
427.89 K	479.13
428.18 K	479.13
428.32 K	479.7
428.45 K	479.98
428.59 K	479.98
428.72 K	479.98
428.85 K	479.7
428.99 K	479.7
429.12 K	479.42
429.26 K	479.42
429.56 K	479.7
429.69 K	479.7
429.83 K	480.27
429.96 K	480.55
430.1 K	480.55
430.23 K	480.55
430.37 K	481.12
430.51 K	480.84
430.65 K	480.55
430.78 K	480.55
430.92 K	480.55
431.21 K	480.27
431.35 K	480.27
431.48 K	480.55
431.62 K	481.12
431.75 K	481.4
431.89 K	481.69
432.02 K	481.12
432.16 K	481.12
432.29 K	480.84
432.59 K	481.12
432.72 K	481.12
432.86 K	481.12
432.99 K	481.12
433.13 K	481.12
433.27 K	481.12
433.4 K	481.12
433.54 K	481.4
433.67 K	482.83
433.81 K	484.25
433.95 K	483.96
434.24 K	482.54
434.37 K	482.54
434.51 K	483.11
434.65 K	483.11
434.78 K	482.83
434.92 K	482.54
435.05 K	482.54
435.19 K	482.26
435.32 K	482.26
435.62 K	482.83
435.76 K	483.11
435.9 K	483.11
436.03 K	483.39
436.17 K	483.39
436.3 K	483.11
436.44 K	483.68
436.57 K	483.96
436.71 K	483.39
436.85 K	483.68
